From patent US8722849B2, “Polypeptides” (Novo Nordisk A/S, priority 2011, dated 2014) come the findings set out here.

≈ marks a conversion by molar mass, not a printed value. Read-outs that look alike come from different tables or passages of the source. Starred links: 1 amine or outer side, 2 acyl side, 3 side chain; linkers in the order of their positions; H or OH if unused. Positions of bridges follow the written chain, without caps; N, C: chain ends. Residues, ends and D or L forms follow the SMILES beside them. *: point of attachment. C20 diacid = O=C(O)CCCCCCCCCCCCCCCCCCC(=O)*; γGlu = O=C(O)[C@H](CCC(=O)[*:2])N[*:1]; AEEA = NCCOCCOCC(=O)O Some results are limits rather than exact numbers.

Series [1] can be described thus: Assay (IV) determination of solubility. It counts as physicochemical. The essentials:
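Eight 100 mM buffers (glycylglycine pH 3.0–5.0, bistrispropane pH 6.0–8.0) each received an equal volume of polypeptide dissolved in water at ~500 nmol/ml. Soluble polypeptide was measured by HPLC following 18 hours at room temperature and centrifugation.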

The target in series [2] is T1, human amylin receptor (amylin 3(a) receptor: human calcitonin receptor + RAMP-3) (Homo sapiens, UniProt O60896+P30988).
T1 construct: expressed in transfected cells; host or cells: BHK570
T1 sequence (P30988 25-474): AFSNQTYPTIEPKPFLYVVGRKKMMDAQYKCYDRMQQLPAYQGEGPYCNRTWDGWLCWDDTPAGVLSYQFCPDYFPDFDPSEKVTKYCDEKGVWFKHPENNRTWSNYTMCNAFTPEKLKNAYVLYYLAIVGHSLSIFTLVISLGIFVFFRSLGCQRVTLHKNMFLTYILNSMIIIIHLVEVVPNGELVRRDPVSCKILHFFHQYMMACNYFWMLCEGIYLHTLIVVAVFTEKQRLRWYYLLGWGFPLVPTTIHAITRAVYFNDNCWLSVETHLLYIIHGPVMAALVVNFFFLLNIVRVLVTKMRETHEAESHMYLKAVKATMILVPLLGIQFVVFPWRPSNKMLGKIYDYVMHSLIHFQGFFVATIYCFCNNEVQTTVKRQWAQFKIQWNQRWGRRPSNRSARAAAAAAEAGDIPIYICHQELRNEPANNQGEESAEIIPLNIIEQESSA
T1 sequence (O60896 24-148 partner): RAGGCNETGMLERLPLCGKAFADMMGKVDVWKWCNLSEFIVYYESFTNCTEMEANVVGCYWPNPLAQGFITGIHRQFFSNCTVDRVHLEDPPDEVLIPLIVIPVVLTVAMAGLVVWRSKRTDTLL
Nature of the series: Assay (II)a functional CRE-luciferase assay, human amylin receptor. It counts as cell-based.

For series [3], the target named is T2, human calcitonin receptor (Homo sapiens, UniProt P30988).
T2 construct: expressed in transfected cells; host or cells: BHK570
T2 sequence (P30988 25-474): T1 sequence (P30988 25-474)
Briefly: Assay (II)a functional CRE-luciferase assay, human calcitonin receptor. It counts as cell-based.

[4] abbreviates: Table 2, BHK amylin 3(a)-receptor/CRE-luc cells.
[5] abbreviates: Table 7, human calcitonin (CTa) receptor.
Setting [6] is: pH 3, pH 3.0, read-out: Solubility pH 3.0.
Where [7] appears, read: pH 4, pH 4.0, 18 hours at room temperature, Table 2, read-out: Solubility pH 4.0.
Setting [8] is: pH 4, pH 4.0, read-out: Solubility pH 4.0.
The mark [9] stands for this setting: pH 5, pH 5.0, read-out: Solubility pH 5.0.
Where [10] appears, read: pH 6, pH 6.0, read-out: Solubility pH 6.0.
[11] abbreviates: pH 6.5, pH 6.5, read-out: Solubility pH 6.5.
Setting [12] is: pH 7, pH 7.0, 18 hours at room temperature, Table 3, read-out: Solubility pH 7.0.
The mark [13] stands for this setting: pH 7, pH 7.0, read-out: Solubility pH 7.0.
The mark [14] stands for this setting: pH 7.5, pH 7.5, read-out: Solubility pH 7.5.
[15] abbreviates: pH 8, pH 8.0, read-out: Solubility pH 8.0.
[16] abbreviates: Table 3, BHK amylin 3(a)-receptor/CRE-luc cells.
Setting [17] is: Table 11, read-out: CTa receptor human EC50.

For `CC[C@H](C)[C@H](NC(=O)[C@@H]1CCCN1C(=O)CNC(=O)[C@H](Cc1ccccc1)NC(=O)[C@H](CC(N)=O)NC(=O)[C@H](CCC(N)=O)NC(=O)[C@H](CO)NC(=O)[C@H](CO)NC(=O)[C@H](Cc1c[nH]cn1)NC(=O)[C@H](CCCNC(=N)N)NC(=O)[C@H](CC(C)C)NC(=O)[C@H](Cc1ccccc1)NC(=O)[C@H](CCC(=O)O)NC(=O)[C@H](C)NC(=O)[C@H](CC(C)C)NC(=O)[C@H](CCCNC(=N)N)NC(=O)[C@H](CCC(N)=O)NC(=O)[C@@H](NC(=O)[C@H](C)NC(=O)[C@@H]1CSSC[C@H](NC(=O)[C@H](CCCNC(=N)N)NC(=O)[C@H](CCC(=O)O)NC(=O)[C@H](CCC(=O)O)NC(=O)CC[C@H](NC(=O)CCCCCCCCCCCCCCCCCCC(=O)O)C(=O)O)C(=O)N[C@@H](CC(N)=O)C(=O)N[C@@H]([C@@H](C)O)C(=O)N[C@@H](C)C(=O)N[C@@H]([C@@H](C)O)C(=O)N1)[C@@H](C)O)C(=O)N[C@@H](CC(C)C)C(=O)N1CCC[C@H]1C(=O)N1CCC[C@H]1C(=O)N[C@H](C(=O)N[C@@H](CC(N)=O)C(=O)N[C@H](C(=O)NCC(=O)N[C@@H](CO)C(=O)N[C@@H](CCC(N)=O)C(=O)N[C@H](C(=O)N1CCC[C@H]1C(N)=O)[C@@H](C)O)C(C)C)[C@@H](C)O` [Example 158, N-alpha-[(S)-4-Carboxy-4-(19-carboxynonadecanoylamino)butyryl]-Glu-Glu-[Arg1,Glu14,Arg17,Gln21,Gln35,Pro37]-pramlintide] ({C20 diacid-γGlu}-EERCNTATCATQRLAEFLRHSSQNFGPILPPTNVGSQTP-NH2; disulfide 4-9 (inferred)), the solubility at 18 h in series [1] (bistrispropane buffer, pH 6, pH 6.0, read-out: Solubility pH 6.0) is > 200 µM; in series [1] (bistrispropane buffer, pH 6.5, pH 6.5, read-out: Solubility pH 6.5), > 200 µM; in series [1] (bistrispropane buffer, pH 7, pH 7.0, 18 hours at room temperature, Table 3, read-out: Solubility pH 7.0) it was > 200 µM; in series [1] (bistrispropane buffer, pH 7, pH 7.0, read-out: Solubility pH 7.0), > 200 µM; in series [1] (bistrispropane buffer, pH 7.5, pH 7.5, read-out: Solubility pH 7.5), > 200 µM; in series [1] (bistrispropane buffer, pH 8, pH 8.0, read-out: Solubility pH 8.0), > 200 µM. Also, the solubility at 18 h in series [1] (glycylglycine buffer, pH 3, pH 3.0, read-out: Solubility pH 3.0) is > 200 µM; in series [1] (glycylglycine buffer, pH 4, pH 4.0, 18 hours at room temperature, Table 2, read-out: Solubility pH 4.0), > 200 µM; in series [1] (glycylglycine buffer, pH 4, pH 4.0, read-out: Solubility pH 4.0), > 200 µM; in series [1] (glycylglycine buffer, pH 5, pH 5.0, read-out: Solubility pH 5.0), > 200 µM. The EC50 was determined as 1.13 nM in series [2] (setting [4]) and 1.19 nM in series [3] (setting [5]).

On to `CC[C@H](C)[C@H](NC(=O)[C@@H]1CCCN1C(=O)CNC(=O)[C@H](Cc1ccccc1)NC(=O)[C@H](CC(N)=O)NC(=O)[C@H](CCC(=O)O)NC(=O)[C@H](CO)NC(=O)[C@H](CO)NC(=O)[C@H](Cc1c[nH]cn1)NC(=O)[C@H](Cc1c[nH]cn1)NC(=O)[C@H](CC(C)C)NC(=O)[C@H](Cc1ccccc1)NC(=O)[C@H](CCC(=O)O)NC(=O)[C@H](C)NC(=O)[C@H](CC(C)C)NC(=O)[C@H](CCCNC(=N)N)NC(=O)[C@H](CCC(N)=O)NC(=O)[C@@H](NC(=O)[C@H](C)NC(=O)[C@@H]1CSSC[C@H](NC(=O)[C@H](CCCCN)NC(=O)COCCOCCNC(=O)COCCOCCNC(=O)CC[C@H](NC(=O)CCCCCCCCCCCCCCCCCCC(=O)O)C(=O)O)C(=O)N[C@@H](CC(N)=O)C(=O)N[C@@H]([C@@H](C)O)C(=O)N[C@@H](C)C(=O)N[C@@H]([C@@H](C)O)C(=O)N1)[C@@H](C)O)C(=O)N[C@@H](CC(C)C)C(=O)N1CCC[C@H]1C(=O)N1CCC[C@H]1C(=O)N[C@H](C(=O)N[C@@H](CC(N)=O)C(=O)N[C@H](C(=O)NCC(=O)N[C@@H](CO)C(=O)N[C@@H](CC(N)=O)C(=O)N[C@H](C(=O)N1CCC[C@H]1C(N)=O)[C@@H](C)O)C(C)C)[C@@H](C)O` [Example 167] ({C20 diacid-γGlu-AEEA-AEEA}-KCNTATCATQRLAEFLHHSSENFGPILPPTNVGSNTP-NH2; disulfide 2-7), for which the solubility in series [1] (setting [6]), in series [1] (setting [7]), in series [1] (setting [8]), in series [1] (setting [9]), in series [1] (setting [10]) and in series [1] (setting [11]) was > 200 µM each time. Further, the solubility in series [1] (setting [12]), in series [1] (setting [13]), in series [1] (setting [14]) and in series [1] (setting [15]) was > 200 µM in each case. For the same molecule, the 50% effective concentration (EC50) in series [2] (setting [4]) came out at 0.203 nM; in series [2] (setting [16]), 0.203 nM; in series [2] (Table 4), 0.203 nM; in series [2] (Table 6, human amylin receptor), 0.203 nM; in series [2] (Table 7, human amylin receptor) it was 0.203 nM; in series [2] (Table 11) it was 0.203 nM. The EC50 in series [3] (setting [5]) and in series [3] (setting [17]) was 0.113 nM each time.

Consider `CC[C@H](C)[C@H](NC(=O)[C@@H]1CCCN1C(=O)CNC(=O)[C@H](Cc1ccccc1)NC(=O)[C@H](CC(N)=O)NC(=O)[C@H](CC(N)=O)NC(=O)[C@H](CO)NC(=O)[C@H](CO)NC(=O)[C@H](Cc1c[nH]cn1)NC(=O)[C@H](Cc1c[nH]cn1)NC(=O)[C@H](CC(C)C)NC(=O)[C@H](Cc1ccccc1)NC(=O)[C@H](CCC(=O)O)NC(=O)[C@H](C)NC(=O)[C@H](CC(C)C)NC(=O)[C@H](CCCNC(=N)N)NC(=O)[C@H](CCC(N)=O)NC(=O)[C@@H](NC(=O)[C@H](C)NC(=O)[C@@H]1CSSC[C@H](NC(=O)COCCOCCNC(=O)COCCOCCNC(=O)CC[C@H](NC(=O)CCCCCCCCCCCCCCCCCCC(=O)O)C(=O)O)C(=O)N[C@@H](CC(N)=O)C(=O)N[C@@H]([C@@H](C)O)C(=O)N[C@@H](C)C(=O)N[C@@H]([C@@H](C)O)C(=O)N1)[C@@H](C)O)C(=O)N[C@@H](CC(C)C)C(=O)N1CCC[C@H]1C(=O)N1CCC[C@H]1C(=O)N[C@H](C(=O)N[C@@H](CC(N)=O)C(=O)N[C@H](C(=O)NCC(=O)N[C@@H](CO)C(=O)N[C@@H](CC(N)=O)C(=O)N[C@H](C(=O)N[C@@H](Cc1ccc(O)cc1)C(N)=O)[C@@H](C)O)C(C)C)[C@@H](C)O` [Example 43, N-alpha-[2-(2-{2-[2-(2-{2-[(S)-4-Carboxy-4-(19-carboxyheptadecanoylamino)butyrylamino]ethoxy}ethoxy)acetylamino]ethoxy}ethoxy)acetyl]-[des1,Glu14,His17]-pramlintide] ({C20 diacid-γGlu-AEEA-AEEA}-CNTATCATQRLAEFLHHSSNNFGPILPPTNVGSNTY-NH2; disulfide 1-6), for which the solubility in series [1] (setting [6]) was > 200 µM; in series [1] (setting [7]), > 200 µM; in series [1] (setting [8]), > 200 µM; in series [1] (setting [9]), 194 µM (≈ 896 µg/mL); in series [1] (setting [10]), 176 µM (≈ 813 µg/mL); in series [1] (setting [11]) it was 195 µM (≈ 901 µg/mL). Also, the solubility in series [1] (setting [12]), in series [1] (setting [13]), in series [1] (setting [14]) and in series [1] (setting [15]) was > 200 µM in each case. For the same molecule, the EC50 came out at 0.334 nM in series [2] (setting [4]); 0.334 nM in series [2] (setting [16]); 0.334 nM in series [2] (Table 4); 0.334 nM in series [2] (Table 6, human amylin receptor); 0.334 nM in series [2] (Table 7, human amylin receptor); 0.334 nM in series [2] (Table 11). In addition, the EC50 in series [3] (setting [5]) and in series [3] (setting [17]) was 0.672 nM in each case.

The solubility is the dissolved amount per volume that the medium holds. For orientation: EC50 means the concentration needed to bring the measured effect to its halfway point.
